Assay results published in the METLIN SMRT retention time set (Domingo-Almenara et al. 2019).

Experiment: gradient 5% acetonitrile 3 min, to 50% in 2 min, to 85% in 15 min, held 3 min, 100 µL/min
Details: column: Zorbax Extend-C18 2.1 x 50 mm; eluents: water / acetonitrile, 0.1% formic acid
In short: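 A Zorbax Extend-C18 column (2.1 × 50 mm, 1.8 μm) run at 100 μL/min with water and acetonitrile, both containing 0.1% formic acid, separated mixtures of ~100 pure standards. The HPLC was coupled to a quadrupole time-of-flight mass spectrometer operated in positive and negative ionization mode, with dead and dwell volumes of 40 μL and 900 μL. Each retention time was taken from a computationally picked adduct peak that was then manually inspected.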

| SMILES | RP-LC retention time |
| --- | --- |
| COc1cccc(CCC(=O)N2CCn3cnnc3C2)c1 | 584 s |
| CCCNC(=O)C1CCN(c2ccc(SCC(=O)Nc3cccc(C(=O)OCC)c3)nn2)CC1 | 675 s |
| Cc1cc(C)cc(C(=O)NCCc2nc3cccnc3n2C(C)C)c1 | 744 s |
| CCc1cc(=O)n(CC(=O)Nc2cc(C)ccc2C)c(N2CCOCC2)n1 | 747 s |
| O=C(Cc1ccc(F)cc1)N1CCC2(CC1)N=C(c1ccccc1)NO2 | 792 s |
| Cc1ccc(Nc2cc(C)nc(N3CCN(C(=O)c4ccco4)CC3)n2)cc1 | 590 s |
| Cc1ccc2c(Nc3cccc(C(F)(F)F)c3)c(C(=O)N3CCOCC3)cnc2n1 | 573 s |
| CCN1CCN(c2c(C(=O)c3ccc(C)c(C)c3)cnc3cc(OC)c(OC)cc23)CC1 | 579 s |
| Cn1c(N2CCCN(C(=O)c3ccc(F)c(F)c3)CC2)cc(=O)n(C)c1=O | 660 s |
| CS(=O)(=O)Nc1ccc(-c2noc(CNC(=O)Cc3ccccc3)n2)cc1 | 722 s |
| Cc1nccn1Cc1noc(-c2cccc(F)c2)n1 | 611 s |
| CC(C)c1ncc(CO)n1Cc1c(Cl)cccc1Cl | 663 s |
| COc1cccc(Cn2ccn3nc(-c4ccc(OC)c(OC)c4)cc3c2=O)c1 | 916 s |
| CNc1nc(Nc2ccccc2Cl)nc2ccccc12 | 683 s |
| Cc1ccc(CNC(=O)c2ccc3ccnc(N4CCN(c5ccccc5)CC4)c3c2)o1 | 819 s |
| O=C(CN1C(=O)CCCc2cc(S(=O)(=O)N3CCCCC3)ccc21)NCc1ccccc1 | 847 s |
| COc1cccc(-n2c(=O)c(C(=O)NCc3cc(F)cc(F)c3)c(O)c3cccnc32)c1 | 1170 s |
| O=C(CCC1CCN(S(=O)(=O)c2ccccc2)CC1)N1CCOCC1 | 741 s |
| COc1ccccc1NC(=O)N1CCc2nc(-c3ccc(Cl)cc3)ncc2C1 | 948 s |
| O=C(c1csc(N2CCN(c3ccccc3)CC2)n1)N1CCC(N2CCCCC2)CC1 | 668 s |
| CCCN(CCC)C(=O)C1CCN(S(=O)(=O)c2ccc3c(c2)CCCC(=O)N3)CC1 | 694 s |
| CC(C)c1cccc(N2C=C(C(=O)N3CCCCC3)S(=O)(=O)c3ccccc32)c1 | 1010 s |

| SMILES | RP-LC retention time |
| --- | --- |
| O=C1C2C3C=CC(C3)C2C(=O)N1CCN1CCN(Cc2ccc([N+](=O)[O-])cc2)CC1 (stereo not drawn) | 563 s |
| O=C(CSc1cc(N2CCN(c3ccccc3F)CC2)ncn1)NCc1ccccc1 | 1110 s |
| COc1ccc(OC)c(NC(=O)C2c3ccccc3C(=O)N3CCc4ccccc4C23)c1 (stereo not drawn) | 903 s |
| CC(C)c1ccc(-n2nc(N3CCN(C(=O)Cc4cccs4)CC3)ccc2=O)cc1 | 898 s |
| O=C(Nc1cccc(F)c1)N1CCC(n2c(-c3ccco3)nc3cccnc32)C1 (stereo not drawn) | 767 s |
| CCc1ccc(S(=O)(=O)N2CCc3c(c(-c4nnc(-c5ccc(F)cc5)o4)nn3C)C2)cc1 | 1050 s |
| COC(=O)c1cc(C)nc2c1c(=O)n(Cc1cccc(C#N)c1)c(=O)n2C | 952 s |
| Cc1ccc(NC(=O)Nc2c(-c3ccc(F)cc3)nc3ccccn23)cc1C | 714 s |
| O=C(Nc1cccc(Br)c1)N1CCc2nc(-c3ccc(F)cc3)ncc2C1 | 1060 s |
| Cc1ccc(NC(=O)C(=O)NC(C)c2ccccc2)cc1C (stereo not drawn) | 1010 s |
| Cc1nc2c(sc3nc(-c4ccccc4)ccc32)c(=O)n1CC(=O)Nc1ccc(Cl)cc1 | 1120 s |
| COc1ccc(CCNc2ncc(C(=O)O)c(C(C)C)n2)cc1OC | 820 s |
| Cc1ccc(-n2cc3c(N4CCCC(C(=O)NC5CCCCCC5)C4)ncnc3n2)cc1 (stereo not drawn) | 762 s |
| Cc1ccc2[nH]c(C(=O)N3CCOCC3)cc2c1 | 582 s |
| CSc1cccc(NC(=O)N2CCc3nc(-c4ccccc4)ncc3C2)c1 | 955 s |
| O=C(C1CCN(c2nnc(-c3ccccc3)o2)CC1)N1CCOCC1 | 668 s |
| COc1ccc2c(c1)C1(CCN(C(=O)c3cccc(Br)c3)C1)C(=O)N2C (stereo not drawn) | 845 s |
| Cn1c(=O)c(N2CCC(NC(=O)Nc3cccc(Cl)c3)CC2)nc2ccccc21 | 944 s |
| COc1ccc(OC)c(S(=O)(=O)N2CCC(n3cnc4c(C)cccc4c3=O)CC2)c1 | 918 s |
| CC(C)NC(=O)N1CCCC(c2cccc(C(=O)NCCCN3CCCCC3)c2)C1 (stereo not drawn) | 623 s |
| O=C(CCc1c(-c2ccc(Cl)cc2)nc2ccccn12)NCc1ccco1 | 655 s |
| CCc1ccc2c(c1)-c1ccccc1S(=O)(=O)N2CC(=O)NCCN1CCOCC1 | 671 s |

| SMILES | RP-LC retention time |
| --- | --- |
| CCc1cc(C(=O)N2CCN(CC(C)C)CC2)nc2cc(-c3ccccn3)nn12 | 610 s |
| Cc1ccc(CNS(=O)(=O)c2cc3n(c2)CCCNC3=O)cc1C | 739 s |
| CCn1c(=O)c(C(=O)NCCN(C)C2CCCCC2)nc2cccnc21 | 722 s |
| O=C(Nc1ccc(Br)cc1)C1CCCN(c2ncc(-c3ccc(F)cc3)cn2)C1 (stereo not drawn) | 1240 s |
| CCN1C(=O)c2cccnc2Sc2cc(NC(=O)c3ccoc3)ccc21 | 745 s |
| CCCn1cc(CCNC(=O)Nc2ccccc2C)c2cccnc21 | 717 s |
| O=C(CSc1ncnc2c1oc1ccccc12)Nc1nc2ccccc2s1 | 902 s |
| O=C1CCN(S(=O)(=O)c2ccccc2)CCCN(S(=O)(=O)c2cccc(F)c2)CCN1 | 795 s |
| CCc1c(C2CCN(C(=O)c3cc(C)on3)CC2)noc1N | 669 s |
| O=S(=O)(c1ccc(F)cc1F)N1CCC(c2noc(-c3ccc(F)cc3)n2)CC1 | 1130 s |
| CCOC(=O)Cc1c(C)nc2cc(-c3ccc(OC)cc3)nn2c1C | 980 s |
| CCOC(=O)C1CCN(C(=O)c2nnc(-c3ccc(S(=O)(=O)N4CCCC4)cc3)o2)CC1 | 881 s |
| O=S(=O)(c1cc(-c2nnc(C3CC3)o2)co1)N1CCOCC1 | 730 s |
| Cc1cc(C)cc(N2CCC(NC(=O)Cc3ccsc3)C2=O)c1 (stereo not drawn) | 637 s |
| O=S(=O)(c1ccccc1Cl)N1CCN(c2ccc(Nc3ccccn3)nn2)CC1 | 593 s |
| COc1ccc(OC)c(NS(=O)(=O)c2cc3c(s2)CCN(C(=O)C2CC2)C3)c1 | 821 s |
| CN1CCN(S(=O)(=O)c2ccc(C#N)cc2)CC1c1ccccc1 (stereo not drawn) | 528 s |
| CCOC(=O)c1ccc(N2C=C(C(=O)N3CCCC3)S(=O)(=O)c3ccc(Cl)cc32)cc1 | 950 s |
| CCOc1ccccc1NC(=O)N1CCCC1c1c(C)noc1C (stereo not drawn) | 833 s |
| Cc1sc2ccn(C)c(=O)c2c1C(=O)NCc1ccc(Br)cc1 | 811 s |
| COc1cc(NC(=O)Nc2cccc(CNC(=O)O[C@H]3CCOC3)c2)ccc1-c1cnco1 | 838 s |
| CCc1nnc2ccc(NC(=O)Nc3cccc(C)c3)cn12 | 719 s |

| SMILES | RP-LC retention time |
| --- | --- |
| Cc1ccc(-c2noc(-c3ccccc3S(=O)(=O)N3CCN(c4ncccn4)CC3)n2)cc1 | 1160 s |
| CCC(CC)C(=O)Nc1c(-c2ccc(F)cc2)nc2cc(C)ccn12 | 674 s |
| O=C(Nc1nccn(-c2ccc3c(c2)CCC3)c1=O)c1ccc(Cl)cc1 | 962 s |
| Cc1ccc(CNS(=O)(=O)c2ccc(-c3nnc(C)o3)o2)o1 | 737 s |
| O=C(c1ccc(-n2cccn2)nc1)N1CCSCC1 | 714 s |
| COC(=O)Cn1c(C)cc(=O)n2nc(-c3ccc(Cl)cc3)nc12 | 793 s |
| Cc1ccc(-c2nc(C3CC(=O)N(c4ccc(Cl)cc4)C3)no2)c(C)c1 (stereo not drawn) | 994 s |
| COc1ccc(-n2cc(C(=O)Nc3ccc(OC)cc3OC)nn2)cc1 | 1000 s |
| O=C(NCc1ccccc1F)c1ccc(Cn2c(C(F)(F)F)nc3cccnc32)cc1 | 876 s |
| CCC(C)N(CC(=O)N(Cc1ccco1)CC1CCCO1)C(=O)c1ccc(C)cc1 (stereo not drawn) | 917 s |
| Cc1cc(=O)n(CC(=O)NCc2ccc3c(c2)OCO3)c(N2CCOCC2)n1 | 622 s |
| O=C1CCCN1CCCN1C(=O)[C@H]2CN(Cc3cccc(F)c3F)C[C@H]2C1=O | 625 s |
| O=C1OC(Cc2ccccc2)C(c2ccccc2)C1=O (stereo not drawn) | 976 s |
| Cc1ccc(CNC(=O)CN2C(=O)C3CCCCN3c3ccc(C(=O)N4CCCC4)cc32)o1 (stereo not drawn) | 664 s |
| O=C(Cc1csc(NC(=O)c2ccsc2)n1)Nc1nc2c(s1)CCCC2 | 874 s |
| O=C(Nc1nc2c(s1)CN(Cc1ccccc1)CC2)C1CCCN1S(=O)(=O)c1cccs1 (stereo not drawn) | 654 s |
| O=C(NC1CCCCC1)C1CCCN(c2ccc(=O)n(-c3cccc(F)c3)n2)C1 (stereo not drawn) | 785 s |
| CCC1(C(=O)NCc2ccc(Cl)cc2)CCCCC(=O)N1 (stereo not drawn) | 738 s |
| CC(C)Nc1nc(N2CCN(C3CCCCC3)CC2)nc2c1cnn2C | 648 s |
| CNC(=O)C1CCCN(c2nc3ncn(CC(=O)NCc4ccc(OC)cc4)c(=O)c3s2)C1 (stereo not drawn) | 632 s |
| CCC(C)NS(=O)(=O)c1ccccc1-c1nc(-c2ccc(C)cc2)no1 (stereo not drawn) | 1270 s |
| Cc1nc2c(NS(=O)(=O)c3ccc(Cl)cc3)cccn2n1 | 778 s |
